Data reported in US8716281B2, “Pyrimidine compounds that inhibit anaplastic lymphoma kinase” (Amgen Inc., priority 2010, dated 2014).

target: T1, wild-type human ALK cytoplasmic domain (amino acids 1058-1620) (Homo sapiens, UniProt Q9UM73); experiment: ALK Inhibition in Enzyme Assay (Lance TR-FRET); assay type: biochemical; conditions: 2 nM enzyme, ATP at 40 μM (Km apparent), 90 minutes, mean of three replicates; read-out: ALK IC50
T1 construct: The cytoplasmic domain (amino acids 1058-1620) of wild-type human ALK; GST (N); made in house; host or cells: SF9 insect cells
T1 sequence (Q9UM73 1058-1620): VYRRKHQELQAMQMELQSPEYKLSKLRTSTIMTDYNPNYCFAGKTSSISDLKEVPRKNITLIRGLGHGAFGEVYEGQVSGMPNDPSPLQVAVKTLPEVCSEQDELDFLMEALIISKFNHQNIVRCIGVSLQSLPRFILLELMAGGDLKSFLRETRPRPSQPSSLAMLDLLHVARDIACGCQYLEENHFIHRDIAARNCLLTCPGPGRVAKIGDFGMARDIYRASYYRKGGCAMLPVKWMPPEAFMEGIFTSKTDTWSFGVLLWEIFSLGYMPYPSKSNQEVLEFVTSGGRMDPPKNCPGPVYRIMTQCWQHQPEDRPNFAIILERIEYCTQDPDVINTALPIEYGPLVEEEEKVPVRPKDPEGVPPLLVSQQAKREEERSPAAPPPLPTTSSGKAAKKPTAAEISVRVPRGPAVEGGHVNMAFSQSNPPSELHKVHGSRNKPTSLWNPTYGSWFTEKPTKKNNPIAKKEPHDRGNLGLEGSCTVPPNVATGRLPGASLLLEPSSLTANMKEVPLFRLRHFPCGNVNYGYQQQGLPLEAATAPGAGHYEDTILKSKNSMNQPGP
Outline: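 Purified enzyme phosphorylated a biotinylated peptide substrate for 90 minutes at room temperature. Reactions were stopped with 20 mM EDTA in 50 mM Tris (pH 7.5), 100 mM NaCl, 0.05% BSA, 0.1% Tween-20. Phosphopeptide was detected by TR-FRET with SA-APC and Eu-W1024 anti-phosphotyrosine antibody PT66, excitation 320 nm.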

SMILES | IC50
Cc1ccc(CNC(=O)[C@H]2CCCN(c3ccnc(Nc4cnc5ccccc5c4)n3)C2)cc1 [Example 130, (3S)-N-(4-methylbenzyl)-1-(2-(3-quinolinylamino)-4-pyrimidinyl)-3-piperidinecarboxamide] | 1000 to 5000 nM
Cc1ccc(CNC(=O)[C@H]2CCCN(c3ccnc(Nc4ccc5[nH]ccc5c4)n3)C2)cc1 [Example 131, (3S)-1-(2-(1H-indol-5-ylamino)-4-pyrimidinyl)-N-(4-methylbenzyl)-3-piperidinecarboxamide] | 1000 to 5000 nM
COc1ccccc1Nc1nccc(N2CCC[C@H](C(=O)NCc3ccc(C)cc3)C2)n1 [Example 133, (3S)-1-(2-((2-methoxyphenyl)amino)-4-pyrimidinyl)-N-(4-methylbenzyl)-3-piperidinecarboxamide] | 1000 to 5000 nM
Cc1ccc(CNC(=O)[C@H]2CCCN(c3ccnc(Nc4cccc(C(F)(F)F)c4)n3)C2)cc1 [Example 137, (3S)-N-(4-methylbenzyl)-1-(2-((3-(trifluoromethyl)phenyl)amino)-4-pyrimidinyl)-3-piperidinecarboxamide] | 1000 to 5000 nM
COc1ccc(NC(C)=O)cc1Nc1nccc(N2CCC[C@H](C(=O)NCc3ccc(C)cc3)C2)n1 [Example 138, (3S)-1-(2-((5-(acetylamino)-2-methoxyphenyl)amino)-4-pyrimidinyl)-N-(4-methylbenzyl)-3-piperidinecarboxamide] | 1000 to 5000 nM
Cc1ccc(CNC(=O)[C@H]2CCCN(c3ccnc(Nc4ccc(N5CCOCC5)cc4)n3)C2)cc1 [Example 139, (3S)-N-(4-methylbenzyl)-1-(2-((4-(4-morpholinyl)phenyl)ami-no)-4-pyrimidinyl)-3-piperidinecarboxamide] | 1000 to 5000 nM
CC(=O)N1CC(C)(C)c2ccc(Nc3nccc(N4CCC[C@H](C(=O)NCc5ccc(C)cc5)C4)n3)cc21 [Example 142, (3S)-1-(2-((1-acetyl-3,3-dimethyl-2,3-dihydro-1H-indol-6-yl)amino)-4-pyrimidinyl)-N-(4-methylbenzyl)-3-piperidinecarboxamide] | 1000 to 5000 nM
Cc1ccc(CNC(=O)[C@H]2CCCN(c3ccnc(Nc4cc(C5CCN(C(=O)OC(C)(C)C)CC5)[nH]n4)n3)C2)cc1 [Example 144, tert-butyl 4-(3-((4-((3S)-3-((4-methylbenzyl)carbamoyl)-1-piperidinyl)-2-pyrimidinyl)amino)-1H-pyrazol-5-yl)-1-piperidinecarboxylate] | 1000 to 5000 nM
Cc1ccc(CNC(=O)[C@H]2CCCN(c3ccnc(Nc4cc(-c5ccc(C)cc5)[nH]n4)n3)C2)cc1 [Example 145, (3S)-N-(4-methylbenzyl)-1-(2-((5-(4-methylphenyl)-1H-pyrazol-3-yl)amino)-4-pyrimidinyl)-3-piperidinecarboxamide] | 5000 to 10000 nM
Cc1ccc(CNC(=O)[C@H]2CCCN(c3ccnc(Nc4ccc(=O)n(C)c4)n3)C2)cc1 [Example 147, (3S)-N-(4-methylbenzyl)-1-(2-((1-methyl-6-oxo-1,6-dihydro-3-pyridinyl)amino)-4-pyrimidinyl)-3-piperidinecarboxamide] | 5000 to 10000 nM
Cc1ccc(CNC(=O)[C@H]2CCCN(c3ccnc(Nc4cc(C(C)(C)C)cc(C(C)(C)C)c4)n3)C2)cc1 [Example 153, (3S)-1-(2-((3,5-di-tert-butylphenyl)amino)-4-pyrimidinyl)-N-(4-methylbenzyl)-3-piperidinecarboxamide] | 1000 to 5000 nM
Cc1ccc(CNC(=O)[C@H]2CCCN(c3ccnc(Nc4ccc(C(=O)N(C)C)cc4)n3)C2)cc1 [Example 154, (3S)-1-(2-((4-(dimethylcarbamoyl)phenyl)amino)-4-pyrimidinyl)-N-(4-methylbenzyl)-3-piperidinecarboxamide] | 1000 to 5000 nM
Cc1ccc(CNC(=O)[C@H]2CCCN(c3ccnc(Nc4cc(C)cc(C)c4)n3)C2)cc1 [Example 155, (3S)-1-(2-((3,5-dimethylphenyl)amino)-4-pyrimidinyl)-N-(4-methylbenzyl)-3-piperidinecarboxamide] | 1000 to 5000 nM
Cc1ccc(CNC(=O)[C@H]2CCCN(c3ccnc(Nc4cc(F)cc(F)c4)n3)C2)cc1 [Example 159, (3S)-1-(2-((3,5-difluorophenyl)amino)-4-pyrimidinyl)-N-(4-methylbenzyl)-3-piperidinecarboxamide] | 1000 to 5000 nM
Cc1ccc(CNC(=O)[C@H]2CCCN(c3ccnc(Nc4cc(C(F)(F)F)cc(C(F)(F)F)c4)n3)C2)cc1 [Example 163, (3S)-1-(2-((3,5-bis(trifluoromethyl)phenyl)amino)-4-pyrimidinyl)-N-(4-methylbenzyl)-3-piperidinecarboxamide] | 100 to 1000 nM
Cc1ccc(CNC(=O)[C@H]2CCCN(c3ccnc(Nc4cccc(OC(F)(F)F)c4)n3)C2)cc1 [Example 164, (3S)-N-(4-methylbenzyl)-1-(2-((3-(trifluoromethoxy)phenyl)amino)-4-pyrimidinyl)-3-piperidinecarboxamide] | 1000 to 5000 nM
CC(=O)Nc1ccc(Nc2nccc(N3CCC[C@H](C(=O)NCc4ccc(C)cc4)C3)n2)cc1 [Example 165, (3S)-1-(2-((4-(acetylamino)phenyl)amino)-4-pyrimidinyl)-N-(4-methylbenzyl)-3-piperidinecarboxamide] | 1000 to 5000 nM
Cc1ccc(CNC(=O)[C@H]2CCCN(c3ccnc(Nc4ccc(C#N)cc4)n3)C2)cc1 [Example 166, (3S)-1-(2-((4-cyanophenyl)amino)-4-pyrimidinyl)-N-(4-methylbenzyl)-3-piperidinecarboxamide] | 1000 to 5000 nM
Cc1ccc(CNC(=O)[C@H]2CCCN(c3ccnc(Nc4cccc(C(C)O)c4)n3)C2)cc1 (stereo partly drawn) [Example 167, (3S)-1-(2-((3-(1-hydroxyethyl)phenyl)amino)-4-pyrimidinyl)-N-(4-methylbenzyl)-3-piperidinecarboxamide] | 100 to 1000 nM
CNC(=O)c1cccc(Nc2nccc(N3CCC[C@H](C(=O)NCc4ccc(C)cc4)C3)n2)c1 [Example 168, (3S)-N-(4-methylbenzyl)-1-(2-((3-(methylcarbamoyl)phenyl)amino)-4-pyrimidinyl)-3-piperidinecarboxamide] | 1000 to 5000 nM
COc1cc(F)cc(Nc2nccc(N3CCC[C@H](C(=O)NCc4ccc(C)cc4)C3)n2)c1 [Example 169, (3S)-1-(2-((3-fluoro-5-methoxyphenyl)amino)-4-pyrimidinyl)-N-(4-methylbenzyl)-3-piperidinecarboxamide] | 100 to 1000 nM

The next lines start with the values.

IC50 | SMILES
100 to 1000 nM | Cc1ccc(CNC(=O)[C@H]2CCCN(c3ccnc(Nc4cccc5c4CNC5=O)n3)C2)cc1 [Example 141, (3S)-N-(4-methylbenzyl)-1-(2-((1-oxo-2,3-dihydro-1H-isoindol-4-yl)amino)-4-pyrimidinyl)-3-piperidinecarboxamide]
100 to 1000 nM | Cc1ccc(CNC(=O)[C@H]2CCCN(c3ccnc(Nc4cccc(Cn5nccn5)c4)n3)C2)cc1 [Example 143, (3S)-N-(4-methylbenzyl)-1-(2-((3-(2H-1,2,3-triazol-2-ylmethyl)phenyl)amino)-4-pyrimidinyl)-3-piperidinecarboxamide]
100 to 1000 nM | COc1cc(Nc2nccc(N3CCC[C@H](C(=O)NCc4ccc(C)cc4)C3)n2)cc2c1OCCO2 [Example 146, (3S)-1-(2-((8-methoxy-2,3-dihydro-1,4-benzodioxin-6-yl)amino)-4-pyrimidinyl)-N-(4-methylbenzyl)-3-piperidinecarboxamide]
100 to 1000 nM | CCOc1cccc(Nc2nccc(N3CCC[C@H](C(=O)NCc4ccc(C)cc4)C3)n2)c1 [Example 148, (3S)-1-(2-((3-ethoxyphenyl)amino)-4-pyrimidinyl)-N-(4-methylbenzyl)-3-piperidinecarboxamide]
100 to 1000 nM | Cc1ccc(CNC(=O)[C@H]2CCCN(c3ccnc(Nc4cccc(Oc5ccccc5)c4)n3)C2)cc1 [Example 149, (3S)-N-(4-methylbenzyl)-1-(2-((3-phenoxyphenyl)amino)-4-pyrimidinyl)-3-piperidinecarboxamide]
100 to 1000 nM | Cc1ccc(CNC(=O)[C@H]2CCCN(c3ccnc(Nc4cccc(C(=O)c5ccccc5)c4)n3)C2)cc1 [Example 150, (3S)-N-(4-methylbenzyl)-1-(2-((3-(phenylcarbonyl)phenyl)amino)-4-pyrimidinyl)-3-piperidinecarboxamide]
100 to 1000 nM | Cc1ccc(CNC(=O)[C@H]2CCCN(c3ccnc(Nc4cccc(S(N)(=O)=O)c4)n3)C2)cc1 [Example 151, (3S)-N-(4-methylbenzyl)-1-(2-((3-sulfamoylphenyl)amino)-4-pyrimidinyl)-3-piperidinecarboxamide]
100 to 1000 nM | Cc1ccc(CNC(=O)[C@H]2CCCN(c3ccnc(Nc4cccc(Cc5ccccc5)c4)n3)C2)cc1 [Example 152, (3S)-1-(2-((3-benzylphenyl)amino)-4-pyrimidinyl)-N-(4-methylbenzyl)-3-piperidinecarboxamide]
100 to 1000 nM | CSc1cccc(Nc2nccc(N3CCC[C@H](C(=O)NCc4ccc(C)cc4)C3)n2)c1 [Example 157, (3S)-N-(4-methylbenzyl)-1-(2-((3-(methylsulfanyl)phenyl)amino)-4-pyrimidinyl)-3-piperidinecarboxamide]
100 to 1000 nM | Cc1ccc(CNC(=O)[C@H]2CCCN(c3ccnc(Nc4cccc(C)c4)n3)C2)cc1 [Example 158, (3S)-N-(4-methylbenzyl)-1-(2-((3-methylphenyl)amino)-4-pyrimidinyl)-3-piperidinecarboxamide]
100 to 1000 nM | Cc1ccc(CNC(=O)[C@H]2CCCN(c3ccnc(Nc4cccc(OC(C)C)c4)n3)C2)cc1 [Example 160, (3S)-N-(4-methylbenzyl)-1-(2-((3-(1-methylethoxy)phenyl)amino)-4-pyrimidinyl)-3-piperidinecarboxamide]
100 to 1000 nM | Cc1ccc(CNC(=O)[C@H]2CCCN(c3ccnc(Nc4ccc(N5CCN(C)CC5)cc4)n3)C2)cc1 [Example 161, (3S)-N-(4-methylbenzyl)-1-(2-((4-(4-methyl-1-piperazinyl)phenyl)ami-no)-4-pyrimidinyl)-3-piperidinecarboxamide]
